Consider four compounds from patent US20260042731A1, “(2,4-DICHLOROPHENOXY)ACETIC ACID ANALOGS” (CORTEVA AGRISCIENCE LLC, priority 2022, published 2026).

Structures can show the parent of a compound that is named as a salt. Where two headings read alike, the source gives them in different places.

One data set relates to Corn (ZEAMX). In words: Greenhouse post-emergence mixture trials, percent visual control. Format: in vivo.
For data set [1], the system named is Common Lambsquarters (CHEAL). Described as above. Format: in vivo. Particulars: CHEAL, 21 DAA.
In a further data set the test system is Velvetleaf (ABUTH). The description is as above. Type of data set: in vivo. Particulars: Abutilon theophrasti, post-emergence, 504 h; for pest or weed control at 5 g/ha: Arylex 5 g ai or ae/ha alone.
Data set [2] has as its system Amaranthus rudis (AMATA), tall water hemp. The data set is described as follows: Postemergence herbicide evaluation, growth of Amaranthus rudis (AMATA). Format: in vivo. Particulars: Amaranthus tuberculatus, post-emergence; for pest or weed control at 280 g/ha: 280 g ae/ha; for pest or weed control at 560 g/ha: 560 g ae/ha.
In data set [3] the test system is Ambrosia artemisiifolia (AMBEL), common ragweed. In words: Postemergence herbicide evaluation, growth of Ambrosia artemisiifolia (AMBEL). Format: in vivo. Particulars: Ambrosia artemisiifolia, post-emergence; for pest or weed control at 280 g/ha: 280 g ae/ha; for pest or weed control at 560 g/ha: 560 g ae/ha.
Data set [4] relates to Abutilon theophrasti (ABUTH), velvetleaf. The data set is described as follows: Postemergence herbicide evaluation, growth of Abutilon theophrasti (ABUTH). Type of data set: in vivo. Particulars: Abutilon theophrasti, post-emergence; for pest or weed control at 280 g/ha: 280 g ae/ha; for pest or weed control at 560 g/ha: 560 g ae/ha.
Data set [5] deals with Chenopodium album (CHEAL), common lambsquarters. In words: Postemergence herbicide evaluation, growth of Chenopodium album (CHEAL). Type of data set: in vivo. Particulars: Chenopodium album, post-emergence; for pest or weed control at 280 g/ha: 280 g ae/ha; for pest or weed control at 560 g/ha: 560 g ae/ha.
In data set [6] the test system is glyphosate resistant Conyza canadensis (L.) (ERICA), horseweed. The data set is described as follows: Postemergence herbicide evaluation, growth of Conyza canadensis (ERICA). Type of data set: in vivo. To be noted: Erigeron canadensis, post-emergence; for pest or weed control at 280 g/ha: 280 g ae/ha; for pest or weed control at 560 g/ha: 560 g ae/ha.
Data set [7] in a line: Volatility of compounds measured by thermogravimetric analysis (TGA). Type of data set: physicochemical.
Data set [8] concerns weeds ABUTH, AMATA, AMBEL, CHEAL, ERICA. The data set is described as follows: Postemergence herbicide evaluation, overall average % weed control across ABUTH, AMATA, AMBEL, CHEAL and ERICA. Type of data set: in vivo. Particulars: post-emergence, average over five weeds, read-out: Overall Ave % Weed Control; for pest or weed control at 560 g/ha: 560 g ae/ha.
Data set [9] has the same test system. The data set is described as follows: Postemergence herbicide evaluation, overall average % weed control (ABUTH, AMATA, AMBEL, CHEAL, ERICA). Format: in vivo. To be noted: post-emergence, read-out: Overall Ave % Weed Control; for pest or weed control at 280 g/ha: 280 g ae/ha.
Setting [10] is: 168 h, 7 DAA, read-out: Ave. AMATA, percent reduction in plant size relative to the untreated control.
The mark [11] stands for this setting: 504 h, 21 DAA, percent reduction in plant size vs untreated control, read-out: Ave. AMATA.
Setting [12] is: 168 h, 7 DAA, read-out: AVE. AMBEL, percent reduction in plant size relative to the untreated control.
[13] abbreviates: 504 h, 21 DAA, percent reduction in plant size vs untreated control, read-out: AVE. AMBEL.
Where [14] appears, read: 168 h, 7 DAA, read-out: AVE. ABUTH, percent reduction in plant size relative to the untreated control.
[15] abbreviates: 504 h, 21 DAA, percent reduction in plant size vs untreated control, read-out: AVE. ABUTH.
The mark [16] stands for this setting: 168 h, 7 DAA, read-out: Ave. CHEAL, percent reduction in plant size relative to the untreated control.
The mark [17] stands for this setting: 504 h, 21 DAA, percent reduction in plant size vs untreated control, read-out: Ave. CHEAL.
The mark [18] stands for this setting: 168 h, 7 DAA, read-out: Ave. ERICA, percent reduction in plant size relative to the untreated control.
Setting [19] is: 504 h, 21 DAA, percent reduction in plant size vs untreated control, read-out: Ave. ERICA.
[20] abbreviates: Zea mays, post-emergence, 504 h, read-out: % Control.

`COC(=O)c1nc(-c2ccc(Cl)c(OC)c2F)cc(N)c1Cl` [Arylex, halauxifen-methyl, reference compound]: the plant injury at 5 g/ha with Corn (ZEAMX) (Zea mays, post-emergence, 504 h, Trial 2 Trt 19, ZEAMX, B2 0 g ae/ha, Arylex 5 g ai or ae/ha alone, 21 DAA) was determined as 70%; in the data set with Corn (ZEAMX) (Zea mays, post-emergence, 504 h, Trial Bridge 1, ZEAMX, Arylex 5 g ai or ae/ha alone (compound rate 0), 21 DAA, single replicate) it was 65%. For the same compound, the plant injury at […] in the data set on Corn (ZEAMX) (Zea mays, post-emergence, 504 h, Trial 2 Trt 22, ZEAMX, B2 0 g ae/ha, Arylex 6.5 g ai or ae/ha alone, 21 DAA) was found to be 75%. Further, the pest or weed control at 5 g/ha came to 100% in data set [1] (Chenopodium album, post-emergence, 504 h, Trial 2 Trt 19: B2 0 g ae/ha, Arylex 5 g ai or ae/ha alone); 100% in the data set on Velvetleaf (ABUTH) (Trial 2 Trt 19, B2 0 g ae/ha, ABUTH, 21 DAA); 100% in the data set on Velvetleaf (ABUTH) (Trial Bridge 1 Trt 7, ABUTH, D10 0 g ae/ha, 21 DAA). In [1] (Chenopodium album, post-emergence, 504 h, Trial 2 Trt 22: B2 0 g ae/ha, Arylex 6.5 g ai or ae/ha alone), the pest or weed control at […] is 100%. The “% Control” value in [1] (Trial Bridge 1, mixing partner alone (D10 at 0 g ae/ha), Arylex 5 g ai or ae/ha) came to 100%. Besides, the pest or weed control at 65 g/ha with Velvetleaf (ABUTH) (Trial 2 Trt 22, B2 0 g ae/ha, Arylex 65 g ai or ae/ha alone, ABUTH, 21 DAA) stood at 100%.

For `COc1ncc(OC(=O)COc2ccc(Cl)cc2Cl)cn1` [Compound E12], the pest or weed control at 280 g/ha was determined as 70% in data set [2] (setting [10]); 80% in data set [2] (336 h, 14 DAA, read-out: Ave. AMATA, percent reduction in plant size relative to the untreated control); 70% in [2] (setting [11]); 75% in data set [3] (setting [12]); 70% in data set [3] (336 h, 14 DAA, read-out: AVE. AMBEL, percent reduction in plant size relative to the untreated control); 100% in data set [3] (setting [13]). The pest or weed control at 280 g/ha in [4] (setting [14]) amounted to 50%; in data set [4] (336 h, 14 DAA, read-out: AVE. ABUTH, percent reduction in plant size relative to the untreated control) it was 60%; in data set [4] (setting [15]), 65%; in [5] (setting [16]), 77.5%; in data set [5] (336 h, 14 DAA, read-out: Ave. CHEAL, percent reduction in plant size relative to the untreated control) it was 90%; in [5] (setting [17]) it was 87.5%. Moreover, the pest or weed control at 280 g/ha in data set [6] (setting [18]) is 75%; in [6] (336 h, 14 DAA, read-out: Ave. ERICA, percent reduction in plant size relative to the untreated control), 97.5%; in data set [6] (setting [19]), 96.5%; in [8] (504 h, 280 g ae/ha, 21 DAA) it was 83.8%; in data set [9] (168 h, 7 DAA), 69.5%; in [9] (336 h, 14 DAA), 79.5%. Moreover, the pest or weed control at 560 g/ha in data set [2] (setting [10]) is 75%; in data set [2] (336 h, 14 DAA, percent reduction in plant size vs untreated control, read-out: Ave. AMATA) it was 87.5%; in [2] (setting [11]), 87.5%; in data set [3] (setting [12]), 77.5%; in data set [3] (336 h, 14 DAA, percent reduction in plant size vs untreated control, read-out: AVE. AMBEL) it was 90%; in [3] (setting [13]), 100%. Also, the pest or weed control at 560 g/ha in [4] (setting [14]) is 50%; in [4] (336 h, 14 DAA, percent reduction in plant size vs untreated control, read-out: AVE. ABUTH), 52.5%; in data set [4] (setting [15]), 62.5%; in data set [5] (setting [16]), 80%; in data set [5] (336 h, 14 DAA, percent reduction in plant size vs untreated control, read-out: Ave. CHEAL) it was 95%; in data set [5] (setting [17]), 87.5%. In addition, the pest or weed control at 560 g/ha in data set [6] (setting [18]) was determined as 85%; in [6] (336 h, 14 DAA, percent reduction in plant size vs untreated control, read-out: Ave. ERICA), 100%; in [6] (setting [19]) it was 100%; in data set [8] (336 h, 14 DAA) it was 85%; in data set [8] (504 h, 21 DAA), 87.5%; in [9] (168 h, 560 g ae/ha, 7 DAA), 73.5%. In [7], the “TGA Data (rate of weight loss, volatility)” value came to 0.04464 µg/min.

On to `CCOc1nc(F)cc2nc(S(=O)(=O)Nc3c(Cl)cccc3Cl)nn12` [Diclosulam], for which the “% Control” value in the data set on Corn (ZEAMX) (Trial Bridge 1, ZEAMX, diclosulam 35 g ai or ae/ha alone (compound rate 0), 21 DAA, single replicate) stood at 70%. For the same compound, the plant injury at 25 g/ha in the data set on Corn (ZEAMX) (Zea mays, post-emergence, 504 h, Trial 2 Trt 13, ZEAMX, B2 0 g ae/ha, Diclosulam 25 g ai or ae/ha alone, 21 DAA) is 80%. Further, the plant injury at 35 g/ha in the data set with Corn (ZEAMX) (Zea mays, post-emergence, 504 h, Trial 2 Trt 16, ZEAMX, B2 0 g ae/ha, Diclosulam 35 g ai or ae/ha alone, 21 DAA) stood at 95%; in the data set with Corn (ZEAMX) (Zea mays, post-emergence, 504 h, Trial Bridge 1, ZEAMX, diclosulam 35 g ai or ae/ha alone (compound rate 0), 21 DAA, single replicate), 70%. Also, the pest or weed control at 25 g/ha is 40% in [1] (Chenopodium album, post-emergence, 504 h, Trial 2 Trt 13: B2 0 g ae/ha, Diclosulam 25 g ai or ae/ha alone) and 100% with Velvetleaf (ABUTH) (Trial 2 Trt 13, B2 0 g ae/ha, Diclosulam 25 g ai or ae/ha alone, ABUTH, 21 DAA). Besides, the pest or weed control at 35 g/ha came to 98% with Velvetleaf (ABUTH) (Trial 2 Trt 16, B2 0 g ae/ha, Diclosulam 35 g ai or ae/ha alone, ABUTH, 21 DAA) and 100% in the data set with Velvetleaf (ABUTH) (Trial Bridge 1 Trt 4, ABUTH, D10 0 g ae/ha, diclosulam 35 g ai or ae/ha alone, 21 DAA).

Consider `CP(=O)(O)CCC(N)C(=O)O` (stereo not drawn) [Glufosinate, 2-amino-4-(hydroxy(methyl)phosphinyl)butanoic acid ammonium salt], for which, in the data set on Corn (ZEAMX) (setting [20]), the plant injury at 200 g/ha stood at 5% and the plant injury at 900 g/ha came to 10%. Besides, in the data set with Velvetleaf (ABUTH) (read-out: % Control), the pest or weed control at 200 g/ha is 5%.
